Entries after “also recorded” stand apart in the source; their conditions may differ.

The source of these data is article PMC11053136 (Nature Communications, 2024).

Series [1] addresses T1, wild-type PLY (Streptococcus pneumoniae, UniProt Q7ZAK5). Description: cell-based. In kind it is cell-based.
The target in series [2] is T2, PLY (Streptococcus pneumoniae, UniProt Q7ZAK5).
The next series addresses perforin (Homo sapiens, UniProt P14222). In kind it is cell-based.
A further series has as its system K562 cells. Particulars: 6 µM.
Series [3] has as its system Streptococcus pneumoniae (S.pn.) D39Δcps. It counts as cell-based.
In series [4] the target is T1, wild-type PLY. The series is described as follows: biochemical. It counts as binding.
Series [5] has as its target protein tyrosine phosphatase PTP1B (Homo sapiens, UniProt P18031). In kind it is biochemical.
In series [6] the target is T2, PLY. Description: cell-based. It counts as cell-based.
The next series deals with SARS-CoV2 main protease (Severe acute respiratory syndrome coronavirus 2, UniProt P0DTD1). It counts as biochemical.
The target of the next series is Perfringolysin O (PFO) (Clostridium perfringens, UniProt P0C2E9). The series is described as follows: cell-based.
Perfringolysin O (PFO), sequence (P0C2E9 29-500 limits assumed): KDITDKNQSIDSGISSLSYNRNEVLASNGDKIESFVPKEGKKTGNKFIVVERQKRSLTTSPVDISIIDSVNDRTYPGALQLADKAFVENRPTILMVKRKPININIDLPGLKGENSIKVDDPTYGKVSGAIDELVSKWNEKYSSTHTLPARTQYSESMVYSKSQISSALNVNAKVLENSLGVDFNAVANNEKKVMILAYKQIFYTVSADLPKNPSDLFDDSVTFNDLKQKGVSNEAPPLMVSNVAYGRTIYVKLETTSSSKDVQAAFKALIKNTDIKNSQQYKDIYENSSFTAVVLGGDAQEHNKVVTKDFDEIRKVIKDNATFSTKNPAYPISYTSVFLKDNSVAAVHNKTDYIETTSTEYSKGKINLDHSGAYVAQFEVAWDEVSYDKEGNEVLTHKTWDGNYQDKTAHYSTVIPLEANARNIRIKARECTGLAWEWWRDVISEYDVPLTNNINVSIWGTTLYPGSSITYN

T1 sequence (Q7ZAK5 whole entry, looked up): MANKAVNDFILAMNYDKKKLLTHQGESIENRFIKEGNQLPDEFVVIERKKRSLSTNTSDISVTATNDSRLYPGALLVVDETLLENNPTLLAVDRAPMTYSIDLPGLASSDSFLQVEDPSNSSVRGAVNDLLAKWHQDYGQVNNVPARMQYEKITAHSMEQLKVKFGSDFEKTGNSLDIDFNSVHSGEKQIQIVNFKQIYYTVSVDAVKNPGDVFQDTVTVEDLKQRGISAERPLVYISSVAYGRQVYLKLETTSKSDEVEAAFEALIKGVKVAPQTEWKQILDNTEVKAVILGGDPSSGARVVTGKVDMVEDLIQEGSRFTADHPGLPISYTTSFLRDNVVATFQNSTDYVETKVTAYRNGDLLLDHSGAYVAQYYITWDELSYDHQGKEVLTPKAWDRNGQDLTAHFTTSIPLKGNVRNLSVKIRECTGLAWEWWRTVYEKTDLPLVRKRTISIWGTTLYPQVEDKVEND
T2 sequence (Q7ZAK5 whole entry, looked up): as above
perforin, sequence (P14222 22-555): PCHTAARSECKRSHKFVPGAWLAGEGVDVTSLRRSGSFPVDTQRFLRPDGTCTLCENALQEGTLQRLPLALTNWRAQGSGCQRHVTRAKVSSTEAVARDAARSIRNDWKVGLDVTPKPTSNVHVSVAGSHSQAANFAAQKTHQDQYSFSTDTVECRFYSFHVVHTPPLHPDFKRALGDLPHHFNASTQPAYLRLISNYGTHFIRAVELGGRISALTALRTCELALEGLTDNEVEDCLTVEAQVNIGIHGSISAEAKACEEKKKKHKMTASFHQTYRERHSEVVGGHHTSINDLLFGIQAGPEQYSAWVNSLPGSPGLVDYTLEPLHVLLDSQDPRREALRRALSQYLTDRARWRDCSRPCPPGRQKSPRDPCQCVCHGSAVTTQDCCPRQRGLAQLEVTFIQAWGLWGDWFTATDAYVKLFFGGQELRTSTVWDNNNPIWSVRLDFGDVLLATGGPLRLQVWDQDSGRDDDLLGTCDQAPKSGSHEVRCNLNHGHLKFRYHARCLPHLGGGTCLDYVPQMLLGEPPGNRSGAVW
protein tyrosine phosphatase PTP1B, sequence (P18031 whole entry): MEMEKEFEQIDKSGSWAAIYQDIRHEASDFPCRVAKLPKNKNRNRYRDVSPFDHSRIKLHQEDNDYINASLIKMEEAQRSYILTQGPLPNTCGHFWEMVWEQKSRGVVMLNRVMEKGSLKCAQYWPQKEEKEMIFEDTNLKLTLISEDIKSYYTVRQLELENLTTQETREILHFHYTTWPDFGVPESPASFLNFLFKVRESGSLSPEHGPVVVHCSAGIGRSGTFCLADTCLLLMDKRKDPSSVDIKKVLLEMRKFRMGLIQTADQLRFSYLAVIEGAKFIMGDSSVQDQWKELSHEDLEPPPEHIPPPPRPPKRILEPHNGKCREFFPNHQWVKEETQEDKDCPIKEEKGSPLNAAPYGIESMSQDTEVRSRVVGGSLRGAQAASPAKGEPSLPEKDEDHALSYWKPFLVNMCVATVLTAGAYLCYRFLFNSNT

Consider `O=Cc1ccc(-c2ccc(Cl)cc2Cl)o1` [PB-3.1], for which, at wild-type PLY [1], the “PLY inhibition in the hemolysis assay (qualitative)” value is reported as “no inhibitors; also recorded: did not inhibit PLY alone”.

On to `Cc1cc(C)cc(N2C(=O)CC(=O)NC2=O)c1` [PB-2.3], for which, at wild-type PLY [1], the “IC50 (95% CI), inhibition of hemolysis by wild-type PLY” value is “Inactive” and the “PLY inhibition in the hemolysis assay (qualitative)” value is “no inhibitors; also recorded: did not inhibit PLY alone”.

As for `Cc1cc(C)cc(N2C(=O)NC(=O)/C(=C\c3ccc(-c4ccc(Cl)cc4Cl)o3)C2=O)c1` [PB-3], on PLY [2], the “Effect of inhibitor alone on A549 cells” value is “harmless to cells” and the “Protection of A549 cells from PLY (microscopy)” value is recorded as “effectively protected cells from PLY-associated cellular damage”. At perforin, the “Inhibition of lysis of K562 cells by NK cells” value was “did not inhibit” and the “reduction of median target cell lysis compared to DMSO control” value is recorded as 15.6%. Moreover, the “Cytotoxicity for K562 cells alone” value in the series with K562 cells was “not cytotoxic”. Moreover, in [3], the “Survival of A549 cells infected with D39Δcps” value is listed as “almost entirely survived” and the “duration of activity in the cellular infection assays” value is “about 4 h”. At wild-type PLY [4], the Kd came out at 0.256 µM and the residence time is 36.2 min. Further, the koff at wild-type PLY [4] (read-out: koff (off-rate)) stood at 0.00046 s⁻¹. Moreover, at wild-type PLY [4] (read-out: kon (on-rate)), the kon was 1800 M⁻¹ s⁻¹. Further, the “Inhibition of PTP1B” value in series [5] was “inactive; also recorded: without detecting inhibition”. Also, on PLY [6], the “Inhibition of PLY-induced cellular damage, LDH assay (qualitative)” value was “significant concentration-dependent inhibition of PLY” and the “prevented cellular damage (LDH release)” value is “more than 95%”. In addition, the inhibition at 1 µM at PLY [6] (A549, read-out: inhibition of PLY in cellular experiments at 1 µM) was around 20%. Further, the inhibition at 6 µM at PLY [6] (A549, read-out: inhibition of PLY in cellular experiments at 6 µM, 6 µM, after 24 h) is above 90%. The “Inhibition of SARS-CoV2 main protease” value at SARS-CoV2 main protease is “inactive; also recorded: without detecting inhibition”.

In turn, `COc1ccc(C=C2C(=O)NC(=O)NC2=O)cc1COc1ccc(F)cc1F` [PB-1] registered an IC50 at Perfringolysin O (PFO) of 4.6 µM. For the same compound, the “Inhibition of PLY-induced cellular damage, LDH assay (qualitative)” value on PLY [6] was “significant concentration-dependent inhibition of PLY”. At wild-type PLY [1], the IC50 amounted to 38 ± 6 µM and the “Inhibition of hemoglobin release, virtual hit screen” value was “actively hindering hemoglobin release at all three concentrations; also recorded: displayed inhibition”.
